Assay results: patent US11434205B2, “Substituted imidazole carboxylate derivatives and the use thereof” (priority 2018, dated 2022)
Where two headings read alike, the source gives them in different places.

Experiments:
[1] = test system: rats; experiment: Pharmacological characteristics at equivalent doses (2×ED50) in rats; conditions: 2×ED50, tail vein; for Adverse reactions: Red urine (incidence): DMSO solution (DMSO alone 10/10); for Onset time: time of LORR
Protocol: Comparison of Pharmacological Characteristics of the Compounds at Equivalent Doses (2×ED50) in Rats
Adult male Sprague-Dawley rats (250-300 g) were selected for the experiment (n=8). […] The drugs were administered at a dose twice their ED50 through the tail vein of rats in a volume of 0.6 mL and at a rate of 0.1 mL/s. In addition, the time of LORR was recorded as the onset time of anesthesia. […] Furthermore, the duration of the pharmacological effects is sufficient to meet the time requirements for rapid induction of general anesthesia and for diagnostic examinations, some short invasive clinical examinations, or operations.

[2] = test system: rats
Protocol: (§1) Adult male Sprague-Dawley rats (250-300 g) were selected for the experiment. […] The anesthesia effects of the compounds were assessed in rats using a LORR assay and a period >30 s was considered as an indicator of general anesthesia. Then the up and down method was used to determine 50% effective dose (ED50). The drugs were administered through the tail vein of rats in a volume of 0.6 mL and at a rate of 0.1 mL/s.

[3] = test system: secretion of cortisol, H295R cell line; experiment: cells; type: cell-based; conditions: for EC50: Homo sapiens, NCI-H295R, read-out: EC50 (Cortisol)
Protocol: (§2) The Effects of the Compounds on Adrenocortical Function In Vitro Test
(§3) Then secretion of the cortisol and corticosterone in the supernatant, was measured using HPLC-MS/MS method to determine whether the compounds of the present invention had adrenotoxic potential.

[4] = test system: secretion of corticosterone, H295R cell line; experiment: cells; type: cell-based; conditions: for EC50: Homo sapiens, NCI-H295R, read-out: EC50 (Corticosterone)
Protocol: as §2, §3

[5] = test system: rats; experiment: Loss of righting reflexes (LORR) assay in rats, ED50 by up and down method; type: in vivo, rat; conditions: Rattus norvegicus, tail vein, class symbols
Protocol: The Anesthetic Activity of the Compounds was Assessed in Rats Using a Loss of Righting Reflexes (LORR) Assay
as §1

[6] = test system: rats; remark: listed apart in the source
Protocol: Pharmacological Effects of the Compounds on Continuous Infusion in Rats
Adult male Sprague-Dawley rats with body weight ranging from 250 to 300 gm were selected for continuous infusion test. […] Time to recovery of righting reflex from stopping infusion, and time to fully awake from stopping infusion were recorded.

[7] = continuous tail vein infusion at 2×MIR, LORR maintained 1 hour, Table D4
[8] = H295R cell line, 0.1-10000 nM, HPLC-MS/MS, Table D3

| Compound | Righting reflex duration [1] [min] | Adverse reactions: Red urine (incidence) [1] | Onset time [1] [min] | Approximate therapeutic index [2] | Minimal lethal dose [2] [mg/kg] | EC50 [3] [µM] | ED50 [5] [mg/kg] | Cortisol as an indicator to determine the presence of inhibition ([3]; H295R, Table A3) | Corticosterone as an indicator to determine the presence of inhibition ([4]; H295R, Table A3) | EC50 [4] [µM] | further results |
| --- | --- | --- | --- | --- | --- | --- | --- | --- | --- | --- | --- |
| CSCCSC(=O)c1cncn1[C@H](C)c1ccccc1 [Compound C30] | 3.67 ± 1.48 | Red urine (8/8) | 0.23 ± 0.03 | >11 | >11 | > 1 | 0.5 to 1 |  |  |  | Cortisol as an indicator to determine the presence of inhibition ([3]; H295R, Table C3): 0; Corticosterone as an indicator to determine the presence of inhibition ([4]; H295R, Table C3): 0 |
| C[C@H](c1ccccc1)n1cncc1C(=O)OCC1(C(F)F)CCC1 [Compound A19] | 6.13 ± 2.87 | Red urine (8/8) | 0.36 ± 0.16 | >10 | >5 | > 10 | 0.1 to 0.5 | 0 | 0 | > 10 |  |
| C[C@H](c1ccccc1)n1cncc1C(=O)OCC1(C2CO2)CCC1 (stereo partly shown) [Compound A21] | 1.75 ± 0.26 | Red urine (8/8) | 0.27 ± 0.19 | >16 | >5 | > 1 | 0.1 to 0.5 | 0 | 0 | > 1 | Recovery time after stopping infusion ([6]; after 1 hour infusion at 2×MIR): 15 to 25 min; Types and incidence of adverse reactions ([6]; continuous infusion 2×MIR, in words): No; Onset time ([6]; emulsion, continuous infusion at 2×MIR): 3 to 4 min |
| C[C@H](c1ccccc1)n1cncc1C(=O)OC1(C)CCC1=O (stereo partly shown) [Compound A13] | 2.31 ± 2.14 | Red urine (8/8) | 0.56 ± 0.12 | >10 | >4 | > 10 | 0.1 to 0.5 | 0 | 0 | > 10 |  |
| CCC(C)(C)OC(=O)c1cncn1[C@H](C)c1ccccc1 [Compound C19] | 1.26 ± 0.99 | Red urine (8/8) | 0.45 ± 0.23 | >20 | >5 | > 1 | 0.1 to 0.5 |  |  | > 1 | Cortisol as an indicator to determine the presence of inhibition ([3]; H295R, Table C3): 0; Corticosterone as an indicator to determine the presence of inhibition ([4]; H295R, Table C3): 0 |
| CCC(=O)C1(OC(=O)c2cncn2[C@H](C)c2ccccc2)CC1 [Compound C16] | 1.31 ± 0.95 | Red urine (8/8) | 0.73 ± 0.23 | >14 | >10 | > 1 | 0.5 to 1 |  |  | > 1 | Cortisol as an indicator to determine the presence of inhibition ([3]; H295R, Table C3): 0; Corticosterone as an indicator to determine the presence of inhibition ([4]; H295R, Table C3): 0 |
| CCC1(COC(=O)c2cncn2[C@H](C)c2ccccc2)CC1 [Compound A9] | 4.80 ± 1.25 | 8/8 | 0.40 ± 0.15 | >13 | >5 | > 10 | 0.1 to 0.5 | 0 | 0 | > 10 | Adverse reactions: Tremor (incidence) ([1]; animals affected/animals): 5/8 |
| C[C@H](c1ccccc1)n1cncc1C(=O)OC1(C2CO2)CCC1 (stereo partly shown) [Compound A20] | 1.90 ± 0.74 | Red urine (8/8) | 0.11 ± 0.03 | >22 | >3 | > 10 | 0.01 to 0.1 | 0 | 0 | > 10 |  |
| C=C=CC1(OC(=O)c2cncn2[C@H](C)c2ccccc2)CSC1 [Compound D28] | 5.09 ± 1.89 | Red urine (8/8) | 0.25 ± 0.06 | >16 | >10 | > 10 | 0.01 to 0.1 |  |  | > 10 | Onset time [6, 7]: 3 to 4 min; Recovery time after stopping infusion [6, 7]: 13 to 16 min; Types and incidence of adverse reactions [6, 7]: Tremor (2/6); Cortisol as an indicator to determine the presence of inhibition [3, 8]: 0; Corticosterone as an indicator to determine the presence of inhibition [4, 8]: 0 |
| CC#CC1(OC(=O)c2cncn2[C@H](C)c2ccccc2)CCSC1 (stereo partly shown) [Compound D30] | 1.32 ± 0.61 | urine (8/8) | 0.43 ± 0.22 | >11 | >5 |  | 0.5 to 1 |  |  |  | Adverse reactions: Myoclonus (incidence) [1]: Myoclonus (2/8), Red |
| C=C=CC1(OC(=O)c2c(F)ncn2[C@H](C)c2ccccc2)CCCCC1 [Compound E36] | 2.21 ± 1.86 | (8/8) | 0.49 ± 0.17 | >26 | >5 |  | 0.5 to 1 |  |  |  |  |
| C=CC#CC(C)OC(=O)c1cncn1[C@H](C)c1ccccc1 (stereo partly shown) [Compound D59] | 5.83 ± 1.06 | Red urine (8/8) | 0.15 ± 0.02 | >11 | >13 |  | 0.1 to 0.5 |  |  |  |  |
| C[C@H](c1ccccc1)n1cncc1C(=O)OC1(C)COC1 [Compound B28] | 3.32 ± 0.72 | Red urine (8/8) | 0.29 ± 0.15 | >13 | >10 |  | 0.1 to 0.5 |  |  |  |  |
